Patent US6395738B1, “Benzofuran derivatives” (Kyowa Hakko Kogyo Co., Ltd., priority 1997, dated 2002)

Tests used:
TNF α = test: Inhibitory activity on production of TNF α in mouse model with LPS-induced sepsis; assay type: in vivo, BALB/c male mice; details: Dose (mg) 30; orally administered 90 minutes before LPS i.v.; serum TNF α by ELISA 1 hour after LPS

| Compound | melting point [°C] | Ratio of inhibition (%) of TNF α production (TNF α) [%] |
| --- | --- | --- |
| CCN1CCN(c2cc3c(C(=O)Cc4c(Cl)cncc4Cl)ccc(C(=O)OC)c3o2)CC1.O=C(O)/C=C/C(=O)O [Compound 15, 4-[2-(3,5-Dichloro-4-pyridyl)-1-oxoethyl]-2-(4-ethyl-1-piperazinyl)-7-methoxycarbonylbenzofuran Monofumarate] | 196 to 198 | 61 |
| COc1ccc(C(=O)Cc2c(Cl)cncc2Cl)c2cc(C(=O)N3CCN(C(C)C)CC3)oc12.O=C(O)/C=C/C(=O)O [Compound 16, 4-[2-(3,5-Dichloro-4-pyridyl)-1-oxoethyl]-2-(4-isopropyl-1-piperazinyl)carbonyl-7-methoxybenzofuran Monofumarate] | 195 to 196 | 67 |
| COc1ccc(CCc2c(Cl)cncc2Cl)c2cc(C(=O)N3CCN(CCO)CC3)oc12.O=C(O)/C=C/C(=O)O | 184 to 185 | – |
| COc1ccc(C(=O)Nc2c(Cl)cncc2Cl)c2cc(C(=O)N3CCNCC3)oc12 [Compound 12, 4-(3,5-Dichloro-4-pyridyl)carbamoyl-7-methoxy-2-(1-piperazinyl)carbonylbenzofuran] | – | 27 |
| COc1ccc(C(=O)Cc2c(Cl)cncc2Cl)c2cc(C(=O)N3CCNCC3)oc12.Cl [Compound 24, 4-[2-(3,5-Dichloro-4-pyridyl)-1-oxoethyl]-2-(1-piperazinyl)carbonyl-7-methoxybenzofuran Monohydrochloride] | – | 47 |
| COc1ccc(CCc2c(Cl)cncc2Cl)c2cc(C(=O)N3CCN(C)CC3)oc12.O=C(O)/C=C/C(=O)O | 186 to 187 | – |

More lines, main results first:

| melting point [°C] | Compound | Ratio of inhibition (%) of TNF α production (TNF α) [%] |
| --- | --- | --- |
| 150 to 152 | CCC(CO)N1CCN(C(=O)c2cc3c(C(=O)Cc4c(Cl)cncc4Cl)ccc(OC)c3o2)CC1 (centres unmarked) [Compound 19, 4-[2-(3,5-Dichloro-4-pyridyl)-1-oxoethyl]-2-[4-(1-hydroxy-2-butyl)-1-piperazinyl]carbonyl-7-methoxybenzofuran] | 68 |
| 162 to 163 | COc1ccc(C(=O)Cc2c(Cl)cncc2Cl)c2cc(C(=O)N3CCN(CCCO)CC3)oc12 [Compound 20, 4-[2-(3,5-Dichloro-4-pyridyl)-1-oxoethyl]-2-[4-(3-hydroxypropyl)-1-piperazinyl]carbonyl-7-methoxybenzofuran] | 40 |
| 173 to 174 | COc1ccc(C(=O)Cc2c(Cl)cncc2Cl)c2cc(C(=O)N3CC(C)N(C)C(C)C3)oc12 (centres unmarked) [Compound 25, 4-[2-(3,5-Dichloro-4-pyridyl)-1-oxoethyl]-7-methoxy-2-(3,4,5-trimethyl-1-piperazinyl)carbonylbenzofuran] | 53 |
| 184 to 185 | CCOCCN1CCN(C(=O)c2cc3c(C(=O)Cc4c(Cl)cncc4Cl)ccc(OC)c3o2)CC1.O=C(O)/C=C/C(=O)O [Compound 17, 4-[2-(3,5-Dichloro-4-pyridyl)-1-oxoethyl]-2-(4-ethoxyethyl-1-piperazinyl)carbonyl-7-methoxybenzofuran Monofumarate] | 62 |
| 187 to 189 | COc1ccc(C(=O)Cc2c(Cl)cncc2Cl)c2cc(C(=O)N3CCN(C(C)CO)CC3)oc12 (centres unmarked) [Compound 18, 4-[2-(3,5-Dichloro-4-pyridyl)-1-oxoethyl]-2-[4-(1-hydroxy-2-propyl)-1-piperazinyl]carbonyl-7-methoxybenzofuran] | 66 |
| 187 to 188 | COc1ccc(C(=O)Cc2c(Cl)cncc2Cl)c2cc(C(=O)N3CC(C)N(CCO)C(C)C3)oc12 (centres unmarked) [Compound 26, 4-[2-(3,5-Dichloro-4-pyridyl)-1-oxoethyl]-2-(3,5-dimethyl-4-hydroxyethyl-1-piperazinyl)carbonyl-7-methoxybenzofuran] | – |
| 132 to 133 | COc1ccc(C(=O)Cc2c(Cl)cncc2Cl)c2cc(C(=O)N3CCN(CCOCCO)CC3)oc12 [Compound 23, 4-[2-(3,5-Dichloro-4-pyridyl)-1-oxoethyl]-2-{4-[2-(2-hydroxyethoxy)ethyl]-1-piperazinyl}carbonyl-7-methoxybenzofuran] | – |
